One data set addresses T1, rat M3 receptors (Rattus norvegicus, UniProt P08483).
T1 construct: host or cells: CHO (M3-CHO)
The experiment in a line: PI turnover (inositol phosphate production) in M3-CHO cells. The class given is cell-based. Conditions: mean Smax relative to carbachol (100.0); CHO cells expressing rat M3. As for the experimental part:
The medium was changed to 70 μL/well of inositol-free DMEM containing 2 mM glutamine, 10% FBS and 10 μCi/ml of [3H]-inositol (PE:cat # NET114A250UC), incubated overnight as above, then 100 μL of a solution of the test compound in HBSS containing 10 mM LiCl and 20 mM HEPES, pH 7.4 was added, incubation was continued for 60 min under the above conditions, and the test was stopped by removing the test compound and replacing with 100 μL of 50 mM formic acid in water at 4° C. […] The compounds in Table 1 are all dihydropyrimidine-oxadiazoles which vary only at the oxadiazole side chain.

The nature of data set [1]: Blood and brain concentrations (rats), oral gavage. The class given is in vivo, Long-Evans Hooded rats. The following applies: rat, 10 mg/kg po, 1 hr, relative to MCD-386 = 1.00. How it is done:
Long-Evans Hooded rats (Charles River: male, 250-350 g) were dosed with solutions of test compounds in PBS by oral gavage. At the desired time after dosing, the animals were anesthetized with isoflurane, and then euthanized by cervical dislocation. Blood was obtained by cardiac puncture, transferred to a 1.5 mL microcentrifuge tube containing 15U Heparin, and the plasma recovered after centrifugation. Brains were dissected, weighed, immediately chilled to 4° C., and homogenized using a PowerGen 125 homogenizer in five volumes of ice-cold 2% formic acid. Proteins were precipitated from plasma and brain homogenate with two and five volumes respectively of ice-cold 2% formic acid and clarified by centrifugation. The supernatant was ultra-filtered by centrifugation through a 3K MWCO spin column (Pall Life Sciences), following the manufacturer's instructions. The concentration of compound in the ultra-filtrate was subjected to reverse-phase liquid chromatography using a 150×2.1 mm Agilent C8 reverse-phase column on a Shimadzu Prominence LC, eluting the compounds with a gradient of 2% to 50% of acetonitrile+0.1% formic acid for compound MI-50,382, or an isocratic flow of 2% acetonitrile+0.1% formic acid for the rest of the compounds listed. The concentration of the compound in the column effluent was measured using an Applied Biosystems API-3200 triple quadrupole mass spectrometer equipped with an electrospray sample injection system. The counts of the characteristic parent and product ions of each test compound were converted to concentration units by comparison with a standard calibration curve.

Data set [2] concerns healthy male volunteer human subjects. Description: Monitoring of cholinergic side effects in healthy volunteers. The following applies: 6 subjects. The format is in vivo. How it is done: A single 5 mg capsule or 5×0.2 mg capsules (1 mg total dose) were administered orally to healthy male volunteer human subjects with 125 ml of water. Six such subjects receiving the 5 mg dose, and a different 6 subjects received the 1 mg dose.
Subjects were monitored, among other things, for typical signs of muscarinic cholinergic action, such as increased salivation, lachrimation and diaphoresis.

Data set [3] is described as follows: Plasma concentration in rats, iontophoresis patch versus oral gavage. The following applies: rat. The class given is in vivo, Long Evans Hooded rat. The text has this: Two patches were made up, consisting (in order from the outer layer to the skin contacting surface, respectively): adhesive tape (Transpore, 27 mm wide, 3M), circular stainless steel electrodes (22 mm dia) with a central hole for a stainless steel machine screw to which the electrode wire was attached, and 2 layers of 3MM CHR filter paper (Cat #3030-861, Whatman International, Ltd).
The mid-dorsal area of a Long Evans Hooded rat (approximate weight, 320 grams), surgically prepared with a jugular vein catheter (Charles River), was shaved and the skin was then cleaned using an Electrode Prep Pad (Professional Disposables, Inc, Cat #B59800). […]
Blood (400 μl) was withdrawn from the catheters in each rat every 30 minutes, transferred to 1.5 ml centrifuge tubes containing heparin (15 units/tube), and the plasma was separated by centrifugation from the cellular components. The plasma samples were maintained at 4 deg C. until analyzed. […]
The ultra-filtrates were subjected to reverse-phase liquid chromatography using a 150×2.1 mm Agilent C8 reverse-phase column on a Shimadzu Prominence LC, eluting the MCD-386 with an isocratic flow of 2% acetonitrile+0.1% formic acid. The concentration of MCD-386 in the column effluent was measured using an Applied Biosystems API-3200 triple quadrupole mass spectrometer equipped with a Turbo V source (electrospray sample injection) system. […]

Data set [4] has as its system hippocampal inositol phosphate. Description: In vivo tissue inositol phosphate signaling pathway activation, hippocampus. Details: species or system Long Evans Hooded rats. Conditions: rats, 30 mg/kg sc (FIG. 10B).
The nature of a further data set: PAMPA test, Example 34. Conditions: PAMPA.

T1 sequence (P08483 whole entry): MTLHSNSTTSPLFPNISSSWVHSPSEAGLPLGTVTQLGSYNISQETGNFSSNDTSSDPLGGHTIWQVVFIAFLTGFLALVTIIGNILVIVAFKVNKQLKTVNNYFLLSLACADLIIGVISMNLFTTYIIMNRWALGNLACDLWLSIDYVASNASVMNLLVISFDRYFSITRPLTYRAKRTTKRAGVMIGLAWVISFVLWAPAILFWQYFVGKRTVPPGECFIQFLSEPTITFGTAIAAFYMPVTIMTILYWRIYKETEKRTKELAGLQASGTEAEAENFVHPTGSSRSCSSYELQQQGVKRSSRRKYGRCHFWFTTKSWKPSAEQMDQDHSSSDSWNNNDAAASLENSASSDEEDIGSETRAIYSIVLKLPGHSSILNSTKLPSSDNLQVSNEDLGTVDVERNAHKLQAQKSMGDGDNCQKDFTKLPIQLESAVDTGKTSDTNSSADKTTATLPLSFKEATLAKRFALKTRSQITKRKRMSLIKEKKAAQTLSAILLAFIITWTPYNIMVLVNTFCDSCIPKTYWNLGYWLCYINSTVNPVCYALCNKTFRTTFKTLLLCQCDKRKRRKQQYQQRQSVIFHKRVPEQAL

In general, Papp refers to the rate of passage across a membrane or cell layer, normalised by area and donor concentration. Consider `CCc1noc(C2CN=CNC2)n1` (centres unmarked) [MCD-386, 3-ethyl-5-(1,4,5,6-tetrahydropyrimidin-5-yl)-1,2,4-oxadiazole], for which the “M3/CHO PI turnover Relative Mean Smax” value at rat M3 receptors is on record as 46.4. For the same compound, the “Brain Cmax (10 mg/kg po) 1 hr MCD-386 = 1.00” value in data set [1] is 1.00. Besides, the results for the “observable cholinergic side effects” value in data set [2] (1 mg total oral dose cohort) and in data set [2] (5 mg oral dose cohort) were “none of the subjects in the 1 mg total dose cohort experienced any observable cholinergic side effects” and “four subjects showed signs of muscarinic cholinergic activity”, respectively. In addition, in data set [3], the “bioavailability by transdermal delivery versus oral administration” value is “up to three times higher”. For the same compound, the “Plasma Concentration” value in data set [3] (iontophoresis patch, dose 3.2 mg/kg, 30 minutes) was determined as 848 nM. Also, in data set [4], the “increase in the concentration of IP in the hippocampus” value is 71%. Also, in “PAMPA test, Example 34”, the Papp was 0.05 ×10⁻⁶ cm/s.

These data come from US9403806B1, “Cognition enhancing compounds and compositions, methods of making, and methods of treating” (NeuroSolis, Inc., priority 2010, dated 2016).
